Measurements: US11827637B2, “Azaindole derivatives and their use as ERK kinase inhibitors” (AGV Discovery, priority 2022, dated 2023)

Test system: A375 cells (malignant melanoma)
Assay: Cell line proliferation assay (MTT, A375)
Format: cell-based
Details: Homo sapiens, A-375, 72 hours
Method: A cell line assay was used to determine the capacity of compounds to inhibit cell proliferation. A375 cells (malignant melanoma) were grown to near 80% confluence and seeded at 3000 cells per 100 μl per well in DMEM with 10% FBS in 96-well flat bottom plates. Cells were incubated for 24 hours at 37° C. under 5% CO2. 100 μl compound solutions were added to cells and incubated for 72 hours at 37° C. Total volume of media was 200 μl per well. Compounds were screened in 0.15% DMSO (final) using 10 titration points in duplicate. Negative control wells consisted of vehicle only (0.15% DMSO in 10% FBS DMEM). After 72 hours of compound treatment, SDS 1% (final) was added to positive control wells for 15 minutes at 37° C. Then, medium was discarded and replaced by 100 μl per well of a MTT solution (3-[4.5-dimethylthiazol-2-yl]-2.5-diphenyltetrazolium bromide) (Sigma, Cat #M5655) at 0.5 mg/ml in 10% FBS DMEM. Cells were incubated for 4 hours at 37° C. MTT reaction was stopped and homogenized by the addition of 100 μl per well of SDS 10% 0.01M HCl. After 16 hours at 37° C., absorbance was measured at 570 nm in a Bio-Tek plate reader (PowerWave HT). […] Analysis was performed using GraphPad Prism software.

IC50 [nM]	Structure (SMILES)
7	CN(CC#N)C[C@H](c1cccc(Cl)c1)n1ccc(-c2c[nH]c3ncc(N4CCOCC4)cc23)cc1=O [Compound no12 (S), (S)-2-((2-(3-chlorophenyl)-2-(4-(5-morpholino-1H-pyrrolo[2,3-b]pyridin-3-yl)-2-oxopyridin-1(2H)-yl)ethyl)(methyl)amino)acetonitrile]
262	COCCN(C)C[C@H](c1cccc(Cl)c1)n1ccc(-c2c[nH]c3ncc(N4CCOCC4)cc23)cc1=O [Compound no13 (S), (S)-1-(1-(3-chlorophenyl)-2-((2-methoxyethyl)(methyl)amino)ethyl)-4-(5-morpholino-1H-pyrrolo[2,3-b]pyridin-3-yl)pyridin-2(1H)-one]
825	Cc1cc(-c2c[nH]c3ncc(N4CCOCC4)cc23)cc(=O)n1[C@H](CN(C)C)c1cccc(Cl)c1 [Compound no20 (S), (S)-1-(1-(3-chlorophenyl)-2-(dimethylamino)ethyl)-6-methyl-4-(5-morpholino-1H-pyrrolo[2,3-b]pyridin-3-yl)pyridin-2(1H)-one]
156	CN(C)C[C@H](c1cccc(C#N)c1)n1ccc(-c2c[nH]c3ncc(N4CCOCC4)cc23)cc1=O [Compound no25 (S), (S)-3-(2-(dimethylamino)-1-(4-(5-morpholino-1H-pyrrolo[2,3-b]pyridin-3-yl)-2-oxopyridin-1(2H)-yl)ethyl)benzonitrile]
77	CN(C)C[C@H](c1cccc(Cl)c1)n1ccc(-c2c[nH]c3ncc(N4CCOCC4)c(F)c23)cc1=O [Compound no22 (S), (S)-1-(1-(3-chlorophenyl)-2-(dimethylamino)ethyl)-4-(4-fluoro-5-morpholino-1H-pyrrolo[2,3-b]pyridin-3-yl)pyridin-2(1H)-one]
116	CN(C)C[C@H](c1cc(F)cc(I)c1)n1ccc(-c2c[nH]c3ncc(N4CCOCC4)cc23)cc1=O [Compound no10 (S), (S)-1-(2-(dimethylamino)-1-(3-fluoro-5-iodophenyl)ethyl)-4-(5-morpholino-1H-pyrrolo[2,3-b]pyridin-3-yl)pyridin-2(1H)-one]
229	CN(CC(F)F)C[C@H](c1cccc(Cl)c1)n1ccc(-c2c[nH]c3ncc(N4CCOCC4)cc23)cc1=O [Compound no11 (S), (S)-1-(1-(3-chlorophenyl)-2-((2,2-difluoroethyl)(methyl)amino)ethyl)-4-(5-morpholino-1H-pyrrolo[2,3-b]pyridin-3-yl)pyridin-2(1H)-one]
303	CN(C)C[C@H](c1cccc(Cl)c1)n1cc(F)c(-c2c[nH]c3ncc(N4CCOCC4)cc23)cc1=O [Compound no19 (S), (S)-1-(1-(3-chlorophenyl)-2-(dimethylamino)ethyl)-5-fluoro-4-(5-morpholino-1H-pyrrolo[2,3-b]pyridin-3-yl)pyridin-2(1H)-one]
199	CN(C)C[C@H](c1cccc(Cl)c1)n1ccc(-c2c[nH]c3ncc(N4CCOC(C(F)(F)F)C4)cc23)cc1=O (stereo partly drawn) [Compound no21 (S), 1-((S)-1-(3-chlorophenyl)-2-(dimethylamino)ethyl)-4-(5-(2-(trifluoromethyl)morpholino)-1H-pyrrolo[2,3-b]pyridin-3-yl)pyridin-2(1H)-one]
103	CN(C)C[C@H](c1ccc(F)c(F)c1)n1ccc(-c2c[nH]c3ncc(N4CCOCC4)cc23)cc1=O [Compound no17 (S), (S)-1-(1-(3,4-difluorophenyl)-2-(dimethylamino)ethyl)-4-(5-morpholino-1H-pyrrolo[2,3-b]pyridin-3-yl)pyridin-2(1H)-one]
15	CN(C)C[C@H](c1cccc(C(F)(F)F)c1)n1ccc(-c2c[nH]c3ncc(N4CCOCC4)cc23)cc1=O [Compound no26 (S), (S)-1-(2-(dimethylamino)-1-(3-(trifluoromethyl)phenyl)ethyl)-4-(5-morpholino-1H-pyrrolo[2,3-b]pyridin-3-yl)pyridin-2(1H)-one]
188	CN(C)C[C@H](c1cc(F)cc(Cl)c1)n1ccc(-c2c[nH]c3ncc(N4CCOCC4)cc23)cc1=O [Compound no9 (S), (S)-1-(1-(3-chloro-5-fluorophenyl)-2-(dimethylamino)ethyl)-4-(5-morpholino-1H-pyrrolo[2,3-b]pyridin-3-yl)pyridin-2(1H)-one]
162	CN(CC1CC1)C[C@H](c1cccc(Cl)c1)n1ccc(-c2c[nH]c3ncc(N4CCOCC4)cc23)cc1=O [Compound no16 (S), (S)-1-(1-(3-chlorophenyl)-2-((cyclopropylmethyl)(methyl)amino)ethyl)-4-(5-morpholino-1H-pyrrolo[2,3-b]pyridin-3-yl)pyridin-2(1H)-one]
371	CN(C)C[C@H](c1cc(F)cc(F)c1)n1ccc(-c2c[nH]c3ncc(N4CCOCC4)cc23)cc1=O [Compound no18 (S), (S)-1-(1-(3,5-difluorophenyl)-2-(dimethylamino)ethyl)-4-(5-morpholino-1H-pyrrolo[2,3-b]pyridin-3-yl)pyridin-2(1H)-one]
420	CN(C[C@H](c1cccc(Cl)c1)n1ccc(-c2c[nH]c3ncc(N4CCOCC4)cc23)cc1=O)C1CC1 [Compound no14 (S), (S)-1-(1-(3-chlorophenyl)-2-(cyclopropyl(methyl)amino)ethyl)-4-(5-morpholino-1H-pyrrolo[2,3-b]pyridin-3-yl)pyridin-2(1H)-one]

Structure (SMILES)	IC50 [nM]
O=c1cc(-c2c[nH]c3ncc(N4CCOCC4)cc23)ccn1[C@H](CN1CC1)c1cccc(Cl)c1 [Compound no24 (S), (S)-1-(2-(aziridin-1-yl)-1-(3-chlorophenyl)ethyl)-4-(5-morpholino-1H-pyrrolo[2,3-b]pyridin-3-yl)pyridin-2(1H)-one]	96

Molecular target: T1, ERK2 (MAPK1) (Homo sapiens, UniProt P28482)
T1 construct: purchased Life technologies
Assay: ERK2 (MAPK1) enzymatic assay (Z′-Lyte)
Format: biochemical
Details: not given
Method: To assess the capacity of compounds to inhibit ERK2 enzymatic activity, Z′-Lyte biochemical assay from Life technologies was used according to manufacturer's instructions. Briefly, black 384-well plates containing 100 nl of 100× compound solution in 100% DMSO, 2.4 μl kinase buffer, 5 μl 2×MAPK1 (ERK2)/Ser/Thr 03 mixture and 2.5 μl 4×ATP solution were used. Plates were shaken for 30 seconds and incubated for 60 minutes at room temperature. Then, 5 μl of a 1:1024 dilution of Development Reagent A was added. Plates were shaken for 30 seconds and incubated for 60 minutes at room temperature. A plate reader was used to read fluorescence. […] Kinase buffer consisted of 50 mM HEPES pH 7.5, 0.01% BRIJ-35, 10 mM MgCl2, 1 mM EGTA.

T1 sequence (P28482 whole entry): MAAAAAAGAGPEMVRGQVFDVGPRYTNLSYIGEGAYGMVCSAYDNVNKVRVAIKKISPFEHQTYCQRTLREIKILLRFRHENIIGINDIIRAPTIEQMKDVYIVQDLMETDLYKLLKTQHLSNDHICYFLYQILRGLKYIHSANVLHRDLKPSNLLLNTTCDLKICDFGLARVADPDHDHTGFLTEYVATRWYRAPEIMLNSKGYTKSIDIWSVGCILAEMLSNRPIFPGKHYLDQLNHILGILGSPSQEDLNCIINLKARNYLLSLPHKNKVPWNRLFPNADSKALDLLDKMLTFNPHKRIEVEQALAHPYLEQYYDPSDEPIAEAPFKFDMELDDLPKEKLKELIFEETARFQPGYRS

IC50 [nM]	Structure (SMILES)
4	CN(C)C[C@H](c1cccc(Cl)c1)n1ccc(-c2c[nH]c3ncc(N4CCOCC4)c(F)c23)cc1=O [Compound no22 (S), (S)-1-(1-(3-chlorophenyl)-2-(dimethylamino)ethyl)-4-(4-fluoro-5-morpholino-1H-pyrrolo[2,3-b]pyridin-3-yl)pyridin-2(1H)-one]
2.7	CN(C)C[C@H](c1ccc(F)c(F)c1)n1ccc(-c2c[nH]c3ncc(N4CCOCC4)cc23)cc1=O [Compound no17 (S), (S)-1-(1-(3,4-difluorophenyl)-2-(dimethylamino)ethyl)-4-(5-morpholino-1H-pyrrolo[2,3-b]pyridin-3-yl)pyridin-2(1H)-one]
5.1	CN(C)CC(c1cc(F)cc(I)c1)n1ccc(-c2c[nH]c3ncc(N4CCOCC4)cc23)cc1=O (racemic) [Compound no10 (racemate), 1-(2-(dimethylamino)-1-(3-fluoro-5-iodophenyl)ethyl)-4-(5-morpholino-1H-pyrrolo[2,3-b]pyridin-3-yl)pyridin-2(1H)-one]
7.7	CN(C)CC(c1cc(F)cc(Cl)c1)n1ccc(-c2c[nH]c3ncc(N4CCOCC4)cc23)cc1=O (racemic) [Compound no9 (racemate), 1-(1-(3-Chloro-5-fluorophenyl)-2-(dimethylamino)ethyl)-4-(5-morpholino-1H-pyrrolo[2,3-b]pyridin-3-yl)pyridin-2(1H)-one]

Molecular target: 58 kinases
Assay: Kinase panel (Z′-Lyte, Adapta/Lanthascreen), 58 kinases
Format: biochemical
Details: number of the 58 kinases inhibited more than 50% at 500 nM
Method: To assess the kinase selectivity of compounds, Z′-Lyte biochemical assay, and Adapta/Lanthascreen binding assays from Life technologies were used according to manufacturer's instructions. Pourcentages of inhibition at 500 nM of test compounds were performed towards 58 kinases: ABL1, ACVR1B (ALK4), AKT2 (PKB beta), AMPK (A1/132/G3), AURKA (Aurora A), AXL, BRAF, BTK, CAMK2B (CaMKII beta), CDK2/cyclin A, CHEK1 (CHK1), CLK1, CSNK1A1 (CK1 alpha 1), CSNK2A1 (CK2 alpha 1), DAPK3 (ZIPK), DYRK1A, EGFR (ErbB1), EPHB3, ERBB2 (HER2), FGFR2, FLT3, FRAP1 (mTOR), GSK3B (GSK3 beta), IGF1R, IKBKB (IKK beta), INSR, IRAK4, JAK2, KDR (VEGFR2), KIT, LCK, MAP2K1 (MEK1), MAPK10 (JNK3), MAPK11 (p38 beta), MAPKAPK2, MARK2, MET (cMet), NEK2, NTRK1 (TRKA), PAK2 (PAK65), PDGFRB (PDGFR beta), PDK1 Direct, PHKG2, PIK3CA/PIK3R1 (p110 alpha/p85 alpha), PIM1, PLK1, PRKACA (PKA), PRKCA (PKC alpha), PTK2 (FAK), RET, ROCK1, RPS6KA1 (RSK1), RPS6KB1 (p70S6K), SRC, STK3 (MST2), SYK, TEK (Tie2), TYRO3 (RSE).

Kinase panel @500 nM hits > 50%	Structure (SMILES)
20/58	CNC[C@H](c1ccc(Cl)c(Cl)c1)n1ccc(-c2c[nH]c3ncc(N4CCOCC4)cc23)cc1=O [Comparative compound B (S), (S)-1-(1-(3,4-dichlorophenyl)-2-(methylamino)ethyl)-4-(5-morpholino-1H-pyrrolo[2,3-b]pyridin-3-yl)pyridin-2(1H)-one, reference compound]
26/58	NC[C@H](c1cccc(Cl)c1)n1ccc(-c2c[nH]c3ncc(N4CCOCC4)cc23)cc1=O [Comparative compound A (S), (S)-1-(2-amino-1-(3-chlorophenyl)ethyl)-4-(5-morpholino-1H-pyrrolo[2,3-b]pyridin-3-yl)pyridin-2(1H)-one, reference compound]

Same assay, conditions: number of the 58 kinases inhibited more than 80% at 500 nM

Kinase panel @500 nM hits > 80%	Structure (SMILES)
10/58	CNC[C@H](c1ccc(Cl)c(Cl)c1)n1ccc(-c2c[nH]c3ncc(N4CCOCC4)cc23)cc1=O [Comparative compound B (S), (S)-1-(1-(3,4-dichlorophenyl)-2-(methylamino)ethyl)-4-(5-morpholino-1H-pyrrolo[2,3-b]pyridin-3-yl)pyridin-2(1H)-one, reference compound]
15/58	NC[C@H](c1cccc(Cl)c1)n1ccc(-c2c[nH]c3ncc(N4CCOCC4)cc23)cc1=O [Comparative compound A (S), (S)-1-(2-amino-1-(3-chlorophenyl)ethyl)-4-(5-morpholino-1H-pyrrolo[2,3-b]pyridin-3-yl)pyridin-2(1H)-one, reference compound]
